Our source for the IC50 values is patent publication US20210221785A1, “AMINO-PYRIMIDONYL DERIVATIVES, A PROCESS FOR THEIR PREPARATION AND PHARMACEUTICAL COMPOSITIONS CONTAINING THEM” (LES LABORATOIRES SERVIER, priority 2018, published 2021).

Experiment [1] concerns the target T1, His-His-USP7 (aa208-560, |C315A|) (Homo sapiens, UniProt Q93009, C315A).
T1 construct: His-His-USP7 (aa208-560, |C315A|); His-His (N)
The experiment is described as follows: Evaluation of the inhibition of USP7 by the Fluorescence Intensity (FLINT) readings. The note with it: 0.25 nM His-His-USP7, compound incubated 60 minutes at 30° C., 500 nM Ubiquitin-Rhodamine-110 substrate; 50% reduction in kinetic rate. Type of experiment: biochemical. The method, then: USP7 activity was measured using Rhodamine-110 c-terminal labelled Ubiquitin as a substrate (UbiQ Bio). Incubation with USP7 results in the release of Rhodamine-110 leading to an increase in fluorescence which can be used in the continuous measurement of USP7 activity.
The USP7 reactions were performed in a 50 μL volume, in 384 well black solid low binding plates (Corning #3575). The reaction buffer consisted of 100 mM Bicine pH 8.0, 0.01% TritonX100, 1 mM TCEP, and 10% DMSO.
0.25 nM His-His-USP7 (aa208-560, |C315A|) was incubated with compound (final concentration 10% DMSO) for 60 minutes at 30° C. The reaction was then initiated by the addition of 500 nM Ubiquitin-Rhodamme-110 substrate and the plate read every 3 minutes for 21 minutes to measure the release of Rhodamine-110. Fluorescence Intensity (FLINT) readings were measured using a […] plate reader (Ex.485 nm, Em.535 nm).
The inhibition of increasing doses of compound was expressed as a percentage reduction in kinetic rate compared to the kinetic rates established between ‘DMSO only’ and ‘total inhibition’ controls (no USP7). The inhibitory concentrations that gave a 50% reduction in kinetic rate (IC50) were determined, from 11-point dose response cures, in XL-Fit using a 4-Parameter Logistic Model 205 (Sigmoidal Dose-Response Model).

Experiment [2] has as its system Z138 mantle cell lymphoma tumour cell lines. Description: In vitro cytotoxicity, MTT assay. The settings on record: Z138 cells exposed to the test compounds for 96 hours, cell viability vs DMSO treated cells. The format is cell-based. The method, then: The cytotoxicity studies were evaluated by MTT [3-(4,5-dimethylthiazol-2-yl)-2,5-diphenyltetrazolium bromide] assay and carried out on Z138 mantle cell lymphoma tumour cell lines. The cells are distributed onto microplates and exposed to the test compounds for 96 hours. MTT is then added for 4 hours and converted by NAD(P)H-dependent cellular oxidoreductase enzymes in formazan, which has a purple color. The viable cell number is proportional to the production of formuan salts and cell viability can be quantified by the absorbance of the solution at 540 nm with a speetrophotometer (Carmichael et al., Cancer Res. 1987, 47, 936-942).

T1 sequence (Q93009 208-560 C315A): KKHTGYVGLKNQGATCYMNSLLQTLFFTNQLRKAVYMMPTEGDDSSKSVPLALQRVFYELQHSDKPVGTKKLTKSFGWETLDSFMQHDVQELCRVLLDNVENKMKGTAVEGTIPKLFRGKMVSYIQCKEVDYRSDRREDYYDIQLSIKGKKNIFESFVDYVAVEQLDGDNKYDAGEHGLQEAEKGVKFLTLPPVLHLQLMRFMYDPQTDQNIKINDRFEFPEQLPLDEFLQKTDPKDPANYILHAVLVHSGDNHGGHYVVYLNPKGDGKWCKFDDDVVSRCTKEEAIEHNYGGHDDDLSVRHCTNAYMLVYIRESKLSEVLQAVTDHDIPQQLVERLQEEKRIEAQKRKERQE

With `Nc1c(Oc2ccc(F)c(O)c2)ncn(C[C@@]2(O)CCN(C(=O)[C@@H]3CCC(F)(F)C[C@H]3c3ccccc3)CC2(F)F)c1=O` [Example 109, 5-amino-3-({(4S)-1-[(1R,2R)-4,4-fluoro-2-phenylcyclohexane-1-carbonyl]-3,3-difluoro-4-hydroxypiperidin-4-yl}methyl)-6-(4-fluoro-3-hydroxyphenoxy)pyrimidin-4(3H)-one], the IC50 – broadly, the midpoint of a concentration-inhibition curve – in experiment [1] is 0.0403 µM; in experiment [2], 0.0155 µM.

Regarding `Nc1c(Oc2ccc(F)cc2)ncn(CC2(O)CCN(C(=O)[C@@H]3CC[C@@](F)(C#Cc4ncccn4)C[C@H]3c3ccccc3)CC2)c1=O` [Example 142, 5-amino-3-[(1-{[(1R,2R,4S)-4-fluoro-2-phenyl-4-[2-(pyrimidin-2-yl)ethynyl]cyclohexyl]carbonyl}-4-hydroxypiperidin-4-yl)methyl]-6-(4-fluorophenoxy)pyrimidin-4-one], the 50% inhibitory concentration (IC50) came out at 0.0588 µM in experiment [1] and 0.0176 µM in experiment [2] (Homo sapiens, Z-138, 96 h). The like results for `Nc1c(Oc2ccc(F)cc2)ncn(C[C@@]2(O)CCN(C(=O)[C@@H]3CCC(F)(F)C[C@H]3c3ccccc3)CC2(F)F)c1=O` [Example 78, 5-amino-3-({(4S)-1-[(1R,2R)-4,4-difluoro-2-phenylcyclohexane-1-carbonyl]-3,3-difluoro-4-hydroxypiperidin-4-yl}methyl)-6-(4-fluorophenoxy)pyrimidin-4(3H)-one] were, in that order, 0.0575 µM and 0.115 µM. For `N#CCc1ccc(Oc2ncn(CC3(O)CCN(C(=O)[C@@H]4CCC(F)(F)C[C@H]4c4ccccc4)CC3)c(=O)c2N)cc1` [Example 117, (4-{[5-amino-1-({1-[(1R,2R)-4,4-difluoro-2-phenylcyclohexane-1-carbonyl]-4-hydroxypiperidin-4-yl}methyl)-6-oxo-1,6-dihydropyrimidin-4-yl]oxy}phenyl)acetonitrile] the same measures were 0.0822 µM and 0.617 µM. With `CO[C@]1(C#Cc2nnccc2C)CC[C@@H](C(=O)N2CC[C@](O)(Cn3cnc(Oc4ccc(F)cc4)c(N)c3=O)C(F)(F)C2)[C@H](c2ccccc2)C1` [Example 170, 5-amino-3-{[(4S)-3,3-difluoro-4-hydroxy-1-[(1R,2R,4R)-4-methoxy-4-[2-(4-methylpyridazin-3-yl)ethynyl]-2-phenylcyclohexanecarbonyl]piperidin-4-yl]methyl}-6-(4-fluorophenoxy)-3,4-dihydropyrimidin-4-one], the 50% inhibitory concentration (IC50) in experiment [1] came out at 0.0398 µM; in experiment [2] (Homo sapiens, Z-138, 96 h), 0.0219 µM.

`Nc1c(Oc2ccc(F)cc2)ncn(CC2(O)CCN(C(=O)[C@@H]3CC[C@](F)(C#Cc4ccc(F)cn4)C[C@H]3c3ccccc3)CC2)c1=O` [Example 133, 5-amino-3-[(1-{[(1R,2R4R)-4-fluoro-4-[2-(5-fluoropyridin-2-yl)ethynyl]-2-phenylcyclohexyl]carbonyl}-4-hydroxypiperidin-4-yl)methyl]-6-(4-fluorophenoxy)pyrimidin-4-one]: the IC50 in experiment [1] amounted to 0.0315 µM; in experiment [2] (Homo sapiens, Z-138, 96 h), 0.0187 µM. Take `Nc1c(Oc2ccc(F)cc2)ncn(CC2(O)CCN(C(=O)C3CCC(O)(Cc4ccc(F)cc4)CC3c3ccccc3)CC2)c1=O` [Example 99, rel-5-amino-6-(4-fluorophenoxy)-3-({1-[(1R,2R,4R)-4-[(4-fluorophenyl))methyl]-4-hydroxy-2-phenylcyclohexanecarbonyl]-4-hydroxypiperidin-4-yl}methyl)-3,4-dihydropyrimidin-4-one]: the midpoint of inhibition in experiment [2] (Homo sapiens, Z-138, 96 h), the IC50, lay at 0.0128 µM. The compound `CC(C)(O)c1cccc(Oc2ncn(CC3(O)CCN(C(=O)[C@@H]4CCC(F)(F)C[C@H]4c4ccccc4)CC3)c(=O)c2N)c1` [Example 49, 5-amino-3-({1-[(1R,2R)-4,4-difluoro-2-phenylcyclohexane-1-carbonyl]-4-hydroxypiperidin-4-yl}methyl)-6-[3-(2-hydroxypropan-2yl)phenoxy]pyrimidin-4(3H)-one] registered an IC50 in experiment [1] of 0.138 µM. Same read-out and setting: the figure for `NC(=O)c1cccc(Oc2ncn(CC3(O)CCN(C(=O)[C@@H]4CCC(F)(F)C[C@H]4c4ccccc4)CC3)c(=O)c2N)c1` [Example 62, 3-{[5-amino-1-([1-[(1R,2R)-4,4-difluoro-2-phenylcyclohexane-1-carbonyl]-4-hydroxypiperidin-4-yl]methyl)-6-oxy-1,6-dihydropyrimidin-4-yl]oxy}benzamide] is 0.1 µM; for `Nc1c(Oc2ccc(F)cc2)ncn(CC2(O)CCN(C(=O)[C@@H]3CC[C@@](F)(C#Cc4ccccc4)C[C@H]3c3ccccc3)CC2)c1=O` [Example 136, 5-amino-3-({1-[(1R,2R,4S)-4-fluoro-2-phenyl-4-(2-phenylethynyl)cyclobexanecarbonyl]-4-hydroxypiperidin-4-yl}methyl)-6-(4-fluorophenoxy)-3,4-dihydropyrimidin-4-one] it is 0.197 µM. The same measure, in the same setting: under `N#Cc1ccc(Oc2ncn(CC3(O)CCN(C(=O)[C@@H]4CCC(F)(F)C[C@H]4c4ccccc4)CC3)c(=O)c2N)c(Cl)c1` [Example 53, 4-{[5-amino-1-([1-[(1R,2R)-4,4-difluoro-2-phenylcyclohexane-1-carbanyl]-4-hydroxypiperidin-4-yl]methyl)-6-oxo-1,6-dihydropyrimidin-4-yl]oxy}-3-chlorobenzonitrile] stands 0.439 µM. The same measure, in the same setting: the figure for `NC(=O)c1ccc(Oc2ncn(CC3(O)CCN(C(=O)[C@@H]4CCC(F)(F)C[C@H]4c4ccccc4)CC3)c(=O)c2N)c(Cl)c1` [Example 107, 4-{[5-amino-1-({1-[(1R,2R)-4,4-difluoro-2-phenylcyclohexane-1-carbonyl]-4-hydroxypiperidin-4-yl}methyl)6-oxo-1,6-dihydropyrimidin-4-yl]oxy}-3-chlorobenzamide] is 0.479 µM; for `Nc1c(Oc2ccccc2)ncn(C[C@]2(O)CCN(C(=O)[C@@H]3CCC(F)(F)C[C@H]3c3ccccc3)CC2(F)F)c1=O` [Example 10, 5-amino-3-[[(4R)-1-[(1R,2R)-4,4-difluoro-2-phenyl-cyclohexanecarbonyl]-3,3-difluoro-4-hydroxy-4-piperidyl]methyl]-6-phenoxy-pyrimidin-4-one] it is 4.32 µM; for `Nc1c(Oc2ccc(F)cc2)ncn(CC2(O)CCN(C(=O)[C@@H]3CC[C@@](F)(C#Cc4ccccn4)C[C@H]3c3ccccc3)CC2)c1=O` [Example 131, 5-amino-3-[(1-{[(1R,2R,4S)-4-fluoro-2-phenyl-4-[2-(pyridin-2-yl)ethynyl]cyclohexyl]carbonyl}-4-hydroxypiperidin-4-yl)methyl]-6-(4-fluorophenoxy)pyrimidin-4-one] it is 0.0218 µM. As for `Nc1c(Sc2ccccc2)ncn(CC2(O)CCN(C(=O)[C@@H]3CCC(F)(F)C[C@H]3c3ccccc3)CC2)c1=O` [Example 30, 5-amino-3-({1-[(1R,2R)-4,4-difluoro-2-phenylcyclohexane-1-carbonyl]-4-hydroxypiperidin-4-yl}methyl)-6-(phenylsulfanyl)pyrimidin-4(3H)-one], in experiment [1], the IC50 was 0.151 µM. In experiment [1], `Cn1ccnc1C[C@@]1(O)CC[C@@H](C(=O)N2CCC(O)(Cn3cnc(Oc4ccc(F)cc4)c(N)c3=O)CC2)[C@H](c2ccccc2)C1` (relative stereo) [Example 101, rel-5-amino-6-(4-fluorophenoxy)-3-({4-hydroxy-1-[(1R,2R,4R)-4-hydroxy-4-[(1-methyl-1H-imidazol-2-yl)methyl]-2-phenyl-cyclohexanecarbonyl]piperidin-4-yl)}methyl)-3,4-dihydropyrimidin-4-one] displayed an IC50 of 0.363 µM. Compared with the last compound, the IC50 is about 2.4-fold higher. The same measure, in the same setting: under `Nc1c(Oc2ccc(F)cc2)ncn(CC2(O)CCN(C(=O)[C@@H]3CCC(F)(F)C[C@H]3c3ccco3)CC2)c1=O` (relative stereo) [Example 88, 5-amino-3-({1-[(1,2-trans)-4,4-difluoro-2-(furan-2-yl)cyclohexane-1-carbonyl]-4-hydroxypiperidin-4-yl}methyl)-6-(4-fluorophenoxy)pyrimidin-4(3H)-one] stands 0.111 µM. The compound `N#Cc1ccc(Oc2ncn(CC3(O)CCN(C(=O)[C@@H]4CCC(F)(F)C[C@H]4c4ccccc4)CC3)c(=O)c2N)cc1Cl` [Example 51, 4-{[5-amino-({1-[(1R,2R)-4,4difluoro-2-phenylcyclohexane-1-carbonyl]-4-hydroxypiperidin-4-yl}methyl)-6-oxo-1,6-dihydropyrimidin-4-yl]oxy}-2-chlorobenzonitrile] came in with an IC50 in experiment [1] of 0.12 µM.
